The record followed here is patent US20160257697A1, “THIOPHENE-SUBSTITUTED TETRACYCLIC COMPOUNDS AND METHODS OFUSE THEREOF FOR THE TREATMENT OF VIRAL DISEASES” (priority 2013, published 2016).

Like-named read-outs stand apart in the source and are kept apart here.

Assay in all cases: microbe, parasite or virus in culture
Assay type in all cases: cell-based, Hepatitis C virus (HCV)

In one experiment the test system is HCV replicon 1A. Conditions: replicon 1A, Replicon Assay A. In short, it runs like this:
(§1)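 Compound is added to replicon cells plated at 2000 cells/well (0.5% DMSO, 5% FBS). After 3 days the cells are washed and lysed, and HCV RNA and cyclophilin mRNA are quantified by multiplex RT-PCR against a standard curve of known replicon total RNA.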
On the technique in general: Replicon systems follow genome replication, usually without infectious particles.

In another experiment the test system is HCV replicon 2B. Conditions: Replicon Assay A. The gist of the method:
as §1

The subject of the next experiment is HCV replicon 1AY93H. The conditions noted are these: Replicon Assay A. In short, it runs like this: as §1
For another experiment, the system named is HCV replicon 1B. The conditions noted are these: replicon 1B, Replicon Assay B.
The next experiment relates to HCV replicon 1AQ30D. Conditions: Replicon Assay B.
Setting [1] is: Hepatitis C virus, read-out: 2B IC50 (nM), replicon 2B.
Setting [2] is: Hepatitis C virus, read-out: 1A Y93H IC50 (nM), replicon 1AY93H.
[3] abbreviates: Hepatitis C virus, read-out: 1A Q30D IC50 (nM), replicon 1AQ30D.
Where [4] appears, read: read-out: 1A Y93H IC50, replicon 1AY93H.
The mark [5] stands for this setting: read-out: 1A Q30D IC50, replicon 1AQ30D.

As a reminder, the IC50 is the point on the concentration scale where inhibition reaches its midpoint.

In the case of `COC(=O)NC(C(=O)N1CCC[C@H]1c1ncc(-c2ccc3c(c2)cc2n3C(c3ccc(C4CC4)s3)Oc3cc(-c4cnc([C@@H]5CCCN5C(=O)[C@@H](NC(=O)OC)C(C)C)[nH]4)cc(F)c3-2)[nH]1)C1(F)CCOCC1` (single isomer, unassigned) [Compound 364], the IC50 with HCV replicon 1A (Hepatitis C virus) was 2 pM; with HCV replicon 2B (setting [1]), 0.0872 nM; in the experiment with HCV replicon 1AY93H (setting [2]) it was 0.0869 nM; in the experiment with HCV replicon 1B (Hepatitis C virus) it was 2.3 pM; with HCV replicon 1AQ30D (setting [3]), 0.498 nM.
For the molecule `COC(=O)NC(C(=O)N1CCC[C@H]1c1ncc(-c2ccc3c(c2)cc2n3C(c3ccc(C(C)C)s3)Oc3cc(-c4cnc([C@@H]5CCCN5C(=O)[C@@H](NC(=O)OC)C(C)C)[nH]4)cc(C)c3-2)[nH]1)C1C[C@@H](C)O[C@@H](C)C1` (single isomer, unassigned) [Compound 366], the IC50 in the experiment on HCV replicon 1A stood at 1.9 pM; with HCV replicon 2B (read-out: 2B IC50, replicon 2B), 0.0053 nM; in the experiment on HCV replicon 1AY93H (setting [4]), 0.0123 nM; in the experiment with HCV replicon 1B (Hepatitis C virus), 1.5 pM; in the experiment on HCV replicon 1AQ30D (setting [3]) it was 0.0759 nM.
For `COC(=O)NC(C(=O)N1CCC[C@H]1c1ncc(-c2ccc3c(c2)cc2n3C(c3ccc(CC4CC4)s3)Oc3cc(-c4cnc([C@@H]5CCCN5C(=O)[C@@H](NC(=O)OC)C(C)C)[nH]4)cc(F)c3-2)[nH]1)C1CCO[C@H](C)C1` (single isomer, unassigned) [Compound 367], the IC50 in the experiment with HCV replicon 1A (Hepatitis C virus) stood at 2.1 pM; in the experiment on HCV replicon 2B (read-out: 2B IC50, replicon 2B) it was 0.0223 nM; in the experiment on HCV replicon 1AY93H (setting [4]), 0.0343 nM; in the experiment on HCV replicon 1B (Hepatitis C virus), 3.4 pM; in the experiment with HCV replicon 1AQ30D (setting [5]) it was 0.361 nM.
`CCCc1ccc(C2Oc3cc(-c4cnc([C@@H]5CCCN5C(=O)[C@@H](NC(=O)OC)C(C)C)[nH]4)cc(F)c3-c3cc4cc(-c5cnc([C@@H]6CCCN6C(=O)C(NC(=O)OC)C6C[C@@H](C)O[C@@H](C)C6)[nH]5)ccc4n32)s1` (single isomer, unassigned) [Compound 369]: the IC50 in the experiment on HCV replicon 1A (Hepatitis C virus) turned out to be 1 pM; in the experiment on HCV replicon 2B (read-out: 2B IC50, replicon 2B), 0.115 nM; in the experiment on HCV replicon 1AY93H (setting [4]), 0.0739 nM; in the experiment on HCV replicon 1B (Hepatitis C virus), 1.8 pM; with HCV replicon 1AQ30D (setting [5]), 0.912 nM.
As to `CCCc1ccc(C2Oc3cc(-c4cnc([C@@H]5CCCN5C(=O)[C@@H](NC(=O)OC)C(C)C)[nH]4)cc(F)c3-c3cc4cc(-c5cnc([C@@H]6CCCN6C(=O)C(NC(=O)OC)C6C[C@@H](C)O[C@@H](C)C6)[nH]5)ccc4n32)s1` (single isomer, unassigned) [Compound 370], the half-inhibitory concentration (IC50) in the experiment on HCV replicon 1A worked out at 1.4 pM; with HCV replicon 2B (read-out: 2B IC50, replicon 2B) it was 0.0066 nM; in the experiment with HCV replicon 1AY93H (setting [4]), 0.0022 nM; in the experiment on HCV replicon 1B, 2 pM; with HCV replicon 1AQ30D (setting [5]), 0.0454 nM.
Turning to `COC(=O)NC(C(=O)N1CCC[C@H]1c1ncc(-c2ccc3c(c2)cc2n3C(c3cc4nccnc4s3)Oc3cc(-c4cnc([C@@H]5CCCN5C(=O)[C@@H](NC(=O)OC)C(C)C)[nH]4)cc(F)c3-2)[nH]1)C1C[C@@H](C)O[C@@H](C)C1` (single isomer, unassigned) [Compound 372], the IC50 with HCV replicon 1A amounted to 2.2 pM; with HCV replicon 2B (read-out: 2B IC50, replicon 2B), 0.0064 nM; with HCV replicon 1AY93H (setting [4]), 0.0051 nM; in the experiment with HCV replicon 1B (Hepatitis C virus), 3.2 pM; in the experiment with HCV replicon 1AQ30D (setting [3]), 0.0964 nM.
`COC(=O)NC(C(=O)N1CCC[C@H]1c1ncc(-c2ccc3c(c2)cc2n3C(c3ccc(CC4CC4)s3)Oc3cc(-c4cnc([C@@H]5CCCN5C(=O)[C@@H](NC(=O)OC)C(C)C)[nH]4)cc(F)c3-2)[nH]1)C1C[C@@H](C)O[C@@H](C)C1` (single isomer, unassigned) [Compound 375]: the IC50 with HCV replicon 1A (Hepatitis C virus) stood at 1.5 pM; in the experiment on HCV replicon 2B (setting [1]), 0.024 nM; in the experiment with HCV replicon 1AY93H (setting [2]) it was 0.0269 nM; in the experiment with HCV replicon 1B (Hepatitis C virus), 2.6 pM; with HCV replicon 1AQ30D (setting [3]), 0.315 nM.
In the same order, the values of `COC(=O)NC(C(=O)N1CCC[C@H]1c1ncc(-c2ccc3c(c2)cc2n3C(c3ccc(C4CC4)s3)Oc3cc(-c4cnc([C@@H]5CCCN5C(=O)C(NC(=O)OC)C(C)(C)F)[nH]4)cc(F)c3-2)[nH]1)C1C[C@@H](C)O[C@@H](C)C1` (single isomer, unassigned) [Compound 379] are 2.2 pM, 0.178 nM, 0.0803 nM, 1.1 pM and 0.798 nM.
